Where two headings read alike, the source gives them in different places. Blank lines part the entries; values can stand above or below the compound they belong to.
Experiments:
[1] = Vitrification of CPA laden solutions: visible opacity after plunging into liquid nitrogen; format: physicochemical
Excerpt: One convenient way for determining non-vitrification is the appearance of opacity as a result of ice formation when freezing solutions in a straw. If there is no visible opacity, it is called apparent vitrification. Although opacity could be easily identified in the traditional plastic straw using the naked eye, it is very difficult to do so for the quartz micro-capillary due to its small dimension. Therefore, an experimental setup shown in FIG. 10 was designed for visualization of opacity during cooling by directing two focused lights on the capillary held against a dark background for all the devices shown in FIG. 1 except the stainless steel micro-capillary. […] This setup was used to determine the threshold (minimum) CPA concentration required to completely avoid opacity during cooling. […] Various total CPA concentrations from 12% to 30% by volume with 2% increments were studied using both the open pulled straw and the thin walled quartz micro-capillary. Since 0.2-1 M sucrose or trehalose has been used in essentially all studies for cryopreservation of mammalian oocytes by both slow freezing and vitrification, further studies were also performed using the quartz micro-capillary for solutions with 0.5 M sucrose or trehalose plus 1.5 M, 2.0 M, and 2.5 M PROH, respectively. The solutions can be loaded into the open pulled straw and quartz micro-capillaries by capillary action while it can be expelled out of the capillaries by using a micro-syringe attached with a soft PEP polymer needle tip to push from the end of the capillaries with a bigger opening.

[2] = Critical cooling rate to achieve vitrification (Vcc) from Boutron's semi-empirical theory and DSC constant K4; format: physicochemical
Excerpt: The critical cooling rate to achieve vitrification (Vcc) is a function of the concentration of cryoprotectant. It has been extensively studied in the case of 1,2-propanediol and other alcohols with relevance in cryobiology, although mainly in the range of cooling rates achievable by differential scanning calorimetry (DSC) techniques. However, it is possible to obtain estimates of the critical cooling rates at other […]. The presence of sugars in equimolar concentrations has shown to have no effect on Vcc in the case of monosaccharides and little effect in the case of sucrose for the concentration used in these studies (0.3 M)(Kuleshova et al., Cryobiology 38:199-130, 1999). The Vcc can be inferred from Boutron's semi-empirical theory of glass forming tendency (Boutron, Cryobiology 23:88-102, 1986); it is given by:
To is the initial temperature of crystallization and xg is the amount of ice formed at the critical cooling rate. Many studies in the literature consider a solution to be vitrified when xg≦10^−6 (Liu and McGrath, Proc. 2005 IEEE Eng. Med. Biol. 27th Ann. Conference, p. 7501-7504, 2005). K4 is a constant dependent of the solution and can be determined by DSC. Although there is not data for K4 in the available literature for our solution, some estimation can be done. The values of K4 for 40%, 37.5% and 35% (w/w) of aqueous solutions of 1,2 propanediol are 24.1° C./min, 54.1° C./min and 151° C./min (Ren et al., Cryobiology 31:47-56, 1994). These values of K4 give rise to Vcc values of 8.0×10^2° C./min, 1.8×10^3° C./min and 5.0×10^3° C./min, respectively. So, a tentative value of […] for 1.8 M of 1,2-propanediol is ≈10^4° C./min. […] The exponential fitting of the data is justified by the theory (Ren et al., supra).

[3] = Ren et al., cited from earlier work
R1 murine ES cell line [4] = assay: Attachment efficiency of ES cells post vitrification; format: cell-based; details: 0.5 M trehalose, 2 M PROH, or both; QMC plunged into liquid nitrogen; day 1; FIG. 15
Excerpt: (§1) For the purpose of evaluating the maintenance of embryonic stem cell pluripotency, a green fluorescent protein (GFP)-reporter cell system was used. The R1 murine ES cell line which expresses GFP under control of the Oct4 promoter was kindly provided by Andras Nagy (U. Toronto)(Nagy et al., Proc. Nat. Acad. Sci. USA 90:8424, 1993). The ES cell maintenance media consisted of Knockout DMEM+15% Knockout Serum Replacement (Invitrogen, Carlsbad, Calif.) containing 1000 U/ml LIF (Chemicon, Temecula, Calif.). Feeder layer-free ES cells were continually passaged in 0.1% gelatin-coated 75 cm^2 flasks in 5% CO2 humidified air at 37° C.
(§2) On the day of experiment, the attached cells were lightly trypsinized for 3-5 minutes and collected. The cells were pelleted at 100×g for 5 minutes and resuspended in cold stem cell media supplemented with 1.5 M 1,2-propanediol (Sigma, St Louis, Mo.) and incubated on ice for 10 minutes. […]
Cell attachment and growth was determined by counting the number of cells per field under a 10× objective. […] The attachment efficiency was calculated as the ratio of the total number of cells per field of a cryopreserved sample to that of the control non-frozen sample at day 1. To assess the proliferation of the attached cells, the total number of cells per field was further monitored for 4 days.

primary rat hepatocytes = format: cell-based
Procedure: The cell viability of hepatocytes was determined immediately post-cryopreservation in quartz micro-capillaries (QMC) in the presence of either no CPA; 0.3 M sucrose; 1.5 M 1,2-propanediol (PROH); 1.5 M PROH and 0.3 M sucrose; or 2.0 M PROH and […]. The number of viable cells was determined in both vitrified samples as well as non-vitrified controls (i.e., no freezing). Cell viability was quantified by the exclusion of trypan blue. […] There was only ˜35% survival for cells loaded with 1.5 M PROH prior to cryopreservation. Sucrose (0.3 M) was then added to the cryopreservation solution with 1.5-2 M PROH. […] When 0.3 M sucrose was added to the cryopreservation solution, the immediate viability jumped to ˜75%.

R1 murine ES cell line [5] = assay: Pluripotent properties of ES cells post vitrification (Oct-4, SSEA-1, alkaline phosphatase); format: cell-based; details: 2 M 1,2-propanediol; ultra-fast cooling in QMC
Excerpt: as §1
as §2, with “minutes. The cells were then spun down at 100×g for 3-5 minutes and resuspended in 1 ml first vitrification solution for 10 minutes. The cells were then spun down at 100×g for 3-5 minutes and resuspended in the second solution at 10×10^6/ml for another 10 minutes.” for “minutes.”

[6] = both open pulled straw and quartz micro-capillary, FIG. 14

appearance of solution in quartz micro-capillary after plunging into liquid nitrogen ([1]; 1 M 1,2-propanediol (in FHM)): opaque
appearance of solution in quartz micro-capillary after plunging into liquid nitrogen ([1]; 2 M 1,2-propanediol (in FHM)): clear
appearance of solution in quartz micro-capillary after plunging into liquid nitrogen ([1]; 7% v 1,2-propanediol in FHM media, FIG. 10): whitish appearance
appearance of solution in quartz micro-capillary after plunging into liquid nitrogen ([1]; 14% v 1,2-propanediol in FHM media, FIG. 10): clear appearance
threshold concentration lower than that of ethylene glycol (EG) [1, 6]: ~5 % v
threshold concentration lower than that of the combination of EG and PROH in a 1:1 ratio [1, 6]: 2.5 % v
threshold concentration for the complete absence of opacity ([1]; micro-capillary): ~2 M
K4, tentative value ([2]; 1.8 M): ≈ 10^4 ° C./min
Vcc (critical cooling rate to achieve vitrification) ([2]; 35% (w/w) aqueous solution): 5.0×10^3 ° C./min
Vcc (critical cooling rate to achieve vitrification) ([2]; 37.5% (w/w) aqueous solution): 1.8×10^3 ° C./min
Vcc (critical cooling rate to achieve vitrification) ([2]; 40% (w/w) aqueous solution): 8.0×10^2 ° C./min
SMILES: CC(O)CO (centres unmarked) [1,2-propanediol]
K4 ([3]; 35% (w/w) aqueous solution): 151 ° C./min
K4 ([3]; 37.5% (w/w) aqueous solution): 54.1 ° C./min
K4 ([3]; 40% (w/w) aqueous solution): 24.1 ° C./min
attachment efficiency (normalized to control) (R1 murine ES cell line [4]): Only a minimum amount of cells can attach
cell survival / immediate viability (exclusion of trypan blue) (primary rat hepatocytes): ~35%
pluripotent properties post-vitrification (Oct-4, SSEA-1, alkaline phosphatase staining) (R1 murine ES cell line [5]): retained their pluripotent properties

SMILES: OC[C@H]1O[C@@](CO)(O[C@H]2O[C@H](CO)[C@@H](O)[C@H](O)[C@H]2O)[C@@H](O)[C@@H]1O [sucrose]
cell survival / immediate viability (exclusion of trypan blue) (primary rat hepatocytes): less than 10%

SMILES: OC[C@H]1O[C@H](O[C@H]2O[C@H](CO)[C@@H](O)[C@H](O)[C@H]2O)[C@H](O)[C@@H](O)[C@@H]1O [trehalose]
attachment efficiency (normalized to control) (R1 murine ES cell line [4]): Only a minimum amount of cells can attach

SMILES: OCCO [Ethylene glycol (EG), ethylene glycol]
threshold concentration for the complete absence of opacity [1]: ~4 M

Reference: patent publication US9538745B2, “Methods for the cryopreservation of cells” (The General Hospital Corporation, priority 2006, dated 2017)
